Molecules are shown by their SMILES.

By IC50 is commonly meant the concentration at which inhibition is half-maximal. A higher IC50 goes with weaker potency.

One test concerns the target Human plasma kallikrein (Homo sapiens (Human), UniProt P03952). The experiment in a line: Kallikrein Assay (fluorogenic substrate Acetyl-K-P-R-AFC). Type of test: biochemical. The settings on record: Plasma Kallikrein (PKal). In outline:
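Ki is derived from IC50 with the Cheng-Prusoff equation, and IC50 from the inflection point of a four-parameter logistic curve. The rate of AFC release is read with 0.5 nM purified enzyme and […] substrate at room temperature or 37 °C.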

In the next test the target is human Factor XIa (Homo sapiens (Human), UniProt P03951). The experiment in a line: Factor XIa Assay (fluorogenic substrate GPR-AFC). Type of test: biochemical. The settings on record: Factor XIa (FXIa).
Sequence of human Factor XIa (P03951 388-625 limits assumed): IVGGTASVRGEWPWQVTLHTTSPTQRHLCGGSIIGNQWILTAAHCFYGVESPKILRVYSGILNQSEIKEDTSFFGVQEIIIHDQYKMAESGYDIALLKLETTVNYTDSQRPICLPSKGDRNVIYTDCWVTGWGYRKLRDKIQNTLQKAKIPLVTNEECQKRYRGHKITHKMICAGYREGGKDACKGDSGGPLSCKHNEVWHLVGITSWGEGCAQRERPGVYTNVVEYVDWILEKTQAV
Sequence of human Factor XIa (P03951 19-387 partner limits assumed): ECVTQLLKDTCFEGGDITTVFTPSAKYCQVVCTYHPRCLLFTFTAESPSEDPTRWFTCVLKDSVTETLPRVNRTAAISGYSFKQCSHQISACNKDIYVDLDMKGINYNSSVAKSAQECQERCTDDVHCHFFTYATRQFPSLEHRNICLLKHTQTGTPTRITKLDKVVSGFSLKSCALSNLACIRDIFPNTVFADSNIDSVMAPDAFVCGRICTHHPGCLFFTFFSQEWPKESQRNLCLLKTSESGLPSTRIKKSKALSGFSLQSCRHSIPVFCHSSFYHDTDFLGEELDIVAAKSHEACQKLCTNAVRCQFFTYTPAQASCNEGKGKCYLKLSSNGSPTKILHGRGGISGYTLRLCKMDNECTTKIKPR

Sequence of Human plasma kallikrein (P03952 391-638): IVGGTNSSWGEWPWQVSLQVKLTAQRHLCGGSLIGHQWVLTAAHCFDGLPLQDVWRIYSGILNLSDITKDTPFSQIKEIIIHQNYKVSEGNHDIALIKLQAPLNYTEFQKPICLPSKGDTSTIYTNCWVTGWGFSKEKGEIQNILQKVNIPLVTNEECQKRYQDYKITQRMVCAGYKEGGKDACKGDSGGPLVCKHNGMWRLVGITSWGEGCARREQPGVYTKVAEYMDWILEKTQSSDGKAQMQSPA
Sequence of Human plasma kallikrein (P03952 20-390 partner): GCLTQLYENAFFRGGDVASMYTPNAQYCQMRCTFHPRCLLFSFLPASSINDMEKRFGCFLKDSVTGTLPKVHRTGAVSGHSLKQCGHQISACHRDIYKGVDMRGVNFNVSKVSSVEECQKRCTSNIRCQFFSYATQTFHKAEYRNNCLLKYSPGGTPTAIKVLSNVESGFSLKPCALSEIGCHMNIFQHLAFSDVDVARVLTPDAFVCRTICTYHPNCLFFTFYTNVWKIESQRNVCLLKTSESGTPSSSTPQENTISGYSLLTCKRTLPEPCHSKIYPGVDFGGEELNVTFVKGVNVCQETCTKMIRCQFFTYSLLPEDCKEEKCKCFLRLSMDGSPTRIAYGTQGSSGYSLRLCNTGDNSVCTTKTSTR

As for `CCc1ncc(-c2c(C(F)F)ccc(Cl)c2F)nc1C(=O)Nc1cnn(C(C)c2cc(C)c(N3C[C@H]4C[C@H]4C3=O)nn2)c1` (single isomer, unassigned) [Example 239, 6-(3-Chloro-6-(difluoromethyl)-2-fluorophenyl)-3-ethyl-N-(1-((S or R)-1-(5-methyl-6-((1R,5S)-2-oxo-3-azabicyclo[3.1.0]hexan-3-yl)pyridazin-3-yl)ethyl)-1H-pyrazol-4-yl)pyrazine-2-carboxamide], the IC50 against Human plasma kallikrein stood at 1.8 nM; at human Factor XIa, 1230 nM.
Turning to `COc1ncc(-c2c(OC(F)F)ccc(Cl)c2F)nc1C(=O)Nc1cnn(C(C)c2cnc(N3C[C@H]4C[C@H]4C3=O)c(C)n2)c1` (single isomer, unassigned) [Example 240, 6-(3-Chloro-6-(difluoromethoxy)-2-fluorophenyl)-3-methoxy-N-(1-((R or S)-1-(6-methyl-5-((1R,5S)-2-oxo-3-azabicyclo[3.1.0]hexan-3-yl)pyrazin-2-yl)ethyl)-1H-pyrazol-4-yl)pyrazine-2-carboxamide], the half-maximal inhibitory concentration (IC50) was 0.4 nM at Human plasma kallikrein and 985 nM on human Factor XIa.
As to `COc1ncc(-c2c(OC(F)F)ccc(Cl)c2F)nc1C(=O)Nc1cnn(C(C)c2cnc(N3C[C@H]4C[C@H]4C3=O)c(C)n2)c1` (single isomer, unassigned) [Example 241, 6-(3-Chloro-6-(difluoromethoxy)-2-fluorophenyl)-3-methoxy-N-(1-((S or R)-1-(6-methyl-5-((1R,5S)-2-oxo-3-azabicyclo[3.1.0]hexan-3-yl)pyrazin-2-yl)ethyl)-1H-pyrazol-4-yl)pyrazine-2-carboxamide], the IC50 worked out at 0.7 nM against Human plasma kallikrein and 377 nM against human Factor XIa.
As to `Cc1ncc(-c2c(C(F)F)ccc(Cl)c2F)nc1C(=O)Nc1cnn(C(C)c2ncc(N3C[C@H]4C[C@H]4C3=O)c(C)c2C)c1` (single isomer, unassigned) [Example 242, 6-(3-Chloro-6-(difluoromethyl)-2-fluorophenyl)-N-(1-((R or S)-1-(3,4-dimethyl-5-((1R,5S)-2-oxo-3-azabicyclo[3.1.0]hexan-3-yl)pyridin-2-yl)ethyl)-1H-pyrazol-4-yl)-3-methylpyrazine-2-carboxamide], the IC50 against Human plasma kallikrein is 0.8 nM; against human Factor XIa, over 10000 nM.
On to `Cc1c(N2C[C@H]3C[C@H]3C2=O)cnc(C(C)n2cc(NC(=O)c3cncc(-c4c(C(F)F)ccc(Cl)c4F)n3)cn2)c1C` (single isomer, unassigned) [Example 243, 6-(3-Chloro-6-(difluoromethyl)-2-fluorophenyl)-N-(1-((R or S)-1-(3,4-dimethyl-5-((1R,5S)-2-oxo-3-azabicyclo[3.1.0]hexan-3-yl)pyridin-2-yl)ethyl)-1H-pyrazol-4-yl)pyrazine-2-carboxamide], for which the results for the IC50 at Human plasma kallikrein and at human Factor XIa were 0.6 nM and over 10000 nM, respectively.
For `Cc1ncc(-c2c(C(F)F)ccc(Cl)c2F)nc1C(=O)Nc1cnn(C(C)c2ncc(N3C[C@H]4C[C@H]4C3=O)c(C)c2F)c1` (single isomer, unassigned) [Example 244, 6-(3-Chloro-6-(difluoromethyl)-2-fluorophenyl)-N-(1-((R or S)-1-(3-fluoro-4-methyl-5-((1R,5S)-2-oxo-3-azabicyclo[3.1.0]hexan-3-yl)pyridin-2-yl)ethyl)-1H-pyrazol-4-yl)-3-methylpyrazine-2-carboxamide], in that order: 46.8 nM and over 10000 nM.
Regarding `Cc1ncc(-c2c(C(F)F)ccc(Cl)c2F)nc1C(=O)Nc1cnn(C(C)c2ncc(N3C[C@H]4C[C@H]4C3=O)c(C)c2F)c1` (single isomer, unassigned) [Example 245, 6-(3-Chloro-6-(difluoromethyl)-2-fluorophenyl)-N-(1-((S or R)-1-(3-fluoro-4-methyl-5-((1R,5S)-2-oxo-3-azabicyclo[3.1.0]hexan-3-yl)pyridin-2-yl)ethyl)-1H-pyrazol-4-yl)-3-methylpyrazine-2-carboxamide], the IC50 on Human plasma kallikrein was 0.9 nM; at human Factor XIa, over 10000 nM.
For `Cc1ncc(-c2c(C(F)F)ccc(Cl)c2F)nc1C(=O)Nc1cnn(C(C)c2cnc(N3C[C@H]4C[C@H]4C3=O)c3c2OC(F)(F)O3)c1` (single isomer, unassigned) [Example 246, 6-(3-Chloro-6-(difluoromethyl)-2-fluorophenyl)-N-(1-((R or S)-1-(2,2-difluoro-4-((1R,5S)-2-oxo-3-azabicyclo[3.1.0]hexan-3-yl)-[1,3]dioxolo[4,5-c]pyridin-7-yl)ethyl)-1H-pyrazol-4-yl)-3-methylpyrazine-2-carboxamide], in that order: 6 nM and 6560 nM.
As for `Cc1ncc(-c2c(C(F)F)ccc(Cl)c2F)nc1C(=O)Nc1cnn(C(C)c2cnc(N3C[C@H]4C[C@H]4C3=O)c3c2OC(F)(F)O3)c1` (single isomer, unassigned) [Example 247, 6-(3-Chloro-6-(difluoromethyl)-2-fluorophenyl)-N-(1-((S or R)-1-(2,2-difluoro-4-((1R,5S)-2-oxo-3-azabicyclo[3.1.0]hexan-3-yl)-[1,3]dioxolo[4,5-c]pyridin-7-yl)ethyl)-1H-pyrazol-4-yl)-3-methylpyrazine-2-carboxamide], the IC50 came out at 0.8 nM at Human plasma kallikrein and 9240 nM at human Factor XIa.
`CC(c1cnc(N2C[C@H]3C[C@H]3C2=O)c2c1OC(F)(F)O2)n1cc(NC(=O)c2cncc(-c3c(C(F)F)ccc(Cl)c3F)n2)cn1` (single isomer, unassigned) [Example 248, 6-(3-Chloro-6-(difluoromethyl)-2-fluorophenyl)-N-(1-((R or S)-1-(2,2-difluoro-4-((1R,5S)-2-oxo-3-azabicyclo[3.1.0]hexan-3-yl)-[1,3]dioxolo[4,5-c]pyridin-7-yl)ethyl)-1H-pyrazol-4-yl)pyrazine-2-carboxamide]: the IC50 is 22.3 nM against Human plasma kallikrein and over 10000 nM at human Factor XIa.
In the same order, the values of `CC(c1cnc(N2C[C@H]3C[C@H]3C2=O)c2c1OC(F)(F)O2)n1cc(NC(=O)c2cncc(-c3c(C(F)F)ccc(Cl)c3F)n2)cn1` (single isomer, unassigned) [Example 249, 6-(3-Chloro-6-(difluoromethyl)-2-fluorophenyl)-N-(1-((S or R)-1-(2,2-difluoro-4-((1R,5S)-2-oxo-3-azabicyclo[3.1.0]hexan-3-yl)-[1,3]dioxolo[4,5-c]pyridin-7-yl)ethyl)-1H-pyrazol-4-yl)pyrazine-2-carboxamide] are 2.1 nM and over 10000 nM.
Regarding `CC(c1cnc(N2C[C@H]3C[C@H]3C2=O)c2c1OCO2)n1cc(NC(=O)c2cncc(-c3c(C(F)F)ccc(Cl)c3F)n2)cn1` (single isomer, unassigned) [Example 250, 6-(3-Chloro-6-(difluoromethyl)-2-fluorophenyl)-N-(1-((R or S)-1-(4-((1R,5S)-2-oxo-3-azabicyclo[3.1.0]hexan-3-yl)-[1,3]dioxolo[4,5-c]pyridin-7-yl)ethyl)-1H-pyrazol-4-yl)pyrazine-2-carboxamide], the IC50 on Human plasma kallikrein was 3.2 nM; against human Factor XIa, 1320 nM.
Consider `CC(c1cnc(N2C[C@H]3C[C@H]3C2=O)c2c1OCO2)n1cc(NC(=O)c2cncc(-c3c(C(F)F)ccc(Cl)c3F)n2)cn1` (single isomer, unassigned) [Example 251, 6-(3-Chloro-6-(difluoromethyl)-2-fluorophenyl)-N-(1-((R or S)-1-(4-((1R,5S)-2-oxo-3-azabicyclo[3.1.0]hexan-3-yl)-[1,3]dioxolo[4,5-c]pyridin-7-yl)ethyl)-1H-pyrazol-4-yl)pyrazine-2-carboxamide], for which the 50% inhibitory concentration (IC50) against Human plasma kallikrein worked out at 1 nM; against human Factor XIa, 2480 nM.
`Cc1ncc(-c2c(C(F)F)ccc(Cl)c2F)nc1C(=O)Nc1cnn(C(C)c2cnc(N3C[C@H]4C[C@H]4C3=O)c3c2OCO3)c1` (single isomer, unassigned) [Example 252, 6-(3-Chloro-6-(difluoromethyl)-2-fluorophenyl)-3-methyl-N-(1-((R or S)-1-(4-((1R,5S)-2-oxo-3-azabicyclo[3.1.0]hexan-3-yl)-[1,3]dioxolo[4,5-c]pyridin-7-yl)ethyl)-1H-pyrazol-4-yl)pyrazine-2-carboxamide]: the values for the IC50 on Human plasma kallikrein and at human Factor XIa were 0.9 nM and 1830 nM, respectively.
Consider `Cc1ncc(-c2c(C(F)F)ccc(Cl)c2F)nc1C(=O)Nc1cnn(C(C)c2cnc(N3C[C@H]4C[C@H]4C3=O)c3c2OCO3)c1` (single isomer, unassigned) [Example 253, 6-(3-Chloro-6-(difluoromethyl)-2-fluorophenyl)-3-methyl-N-(1-((S or R)-1-(4-((1R,5S)-2-oxo-3-azabicyclo[3.1.0]hexan-3-yl)-[1,3]dioxolo[4,5-c]pyridin-7-yl)ethyl)-IH-pyrazol-4-yl)pyrazine-2-carboxamide], for which the IC50 amounted to 2.2 nM on Human plasma kallikrein and 733 nM at human Factor XIa.
`CC(O)c1ncc(-c2c(C(F)F)ccc(Cl)c2F)nc1C(=O)Nc1cnn(Cc2cnc(N3C[C@H]4C[C@H]4C3=O)c3c2OCO3)c1` (single isomer, unassigned) [Example 254, 6-(3-Chloro-6-(difluoromethyl)-2-fluorophenyl)-3-((R or S)-1-hydroxyethyl)-N-(1-((4-((1R,5S)-2-oxo-3-azabicyclo[3.1.0]hexan-3-yl)-[1,3]dioxolo[4,5-c]pyridin-7-yl)methyl)-1H-pyrazol-4-yl)pyrazine-2-carboxamide]: the IC50 at Human plasma kallikrein turned out to be 1.4 nM; against human Factor XIa, 157 nM.
Turning to `CC(c1cnc(N2C[C@H]3C[C@H]3C2=O)nc1CO)n1cc(NC(=O)c2cncc(-c3c(C(F)F)ccc(Cl)c3F)n2)cn1` (stereo in doubt) [Example 169, 6-(3-Chloro-6-(difluoromethyl)-2-fluorophenyl)-N-(1-(1-(4-(hydroxymethyl)-2-(2-oxo-3-azabicyclo[3.1.0]hexan-3-yl)pyrimidin-5-yl)ethyl)-1H-pyrazol-4-yl)pyrazine-2-carboxamide], the IC50 amounted to 15.2 nM against Human plasma kallikrein and 2200 nM against human Factor XIa.

The values are drawn from patent publication US20230286958A1, “PLASMA KALLIKREIN INHIBITORS” (Merck Sharp & Dohme LLC, priority 2020, published 2023).
